From article PMC6407917, “Identification of GSK3186899/DDD853651 as a Preclinical Development Candidate for the Treatment of Visceral Leishmaniasis” (Journal of Medicinal Chemistry, 2018)

Key:
Test in all cases: biochemical
Parameters in all cases: species or system HEK293/K-562/placenta mixed human extract; Kinobeads chemoproteomic competition binding, quantified by TMT LC-MS/MS, dose response up to 20 uM
FN3KRP = FN3KRP (Homo sapiens, UniProt Q9HA64)
LATS1 = LATS1 (Homo sapiens, UniProt O95835)
MYLK = MYLK (Homo sapiens, UniProt Q15746)
MAPKAPK5 = MAPKAPK5 (Homo sapiens, UniProt Q8IW41)
MAPKAPK5, sequence (Q8IW41 whole entry): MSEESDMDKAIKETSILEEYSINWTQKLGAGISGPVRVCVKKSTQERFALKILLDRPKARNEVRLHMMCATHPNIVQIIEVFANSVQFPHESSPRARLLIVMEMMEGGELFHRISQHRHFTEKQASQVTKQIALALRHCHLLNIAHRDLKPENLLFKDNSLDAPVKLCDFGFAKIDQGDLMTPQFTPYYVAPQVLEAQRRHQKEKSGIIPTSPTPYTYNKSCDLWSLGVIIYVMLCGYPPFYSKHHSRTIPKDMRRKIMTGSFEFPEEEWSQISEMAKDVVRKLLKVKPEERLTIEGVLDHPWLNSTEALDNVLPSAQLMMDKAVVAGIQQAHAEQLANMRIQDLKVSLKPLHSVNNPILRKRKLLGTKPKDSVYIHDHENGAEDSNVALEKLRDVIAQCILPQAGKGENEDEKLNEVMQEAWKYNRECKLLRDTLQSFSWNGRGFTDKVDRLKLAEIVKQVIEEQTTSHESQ

TEC = TEC (Homo sapiens, UniProt P42680)
BUB1 = BUB1 (Homo sapiens, UniProt O43683)
BUB1, sequence (O43683 whole entry): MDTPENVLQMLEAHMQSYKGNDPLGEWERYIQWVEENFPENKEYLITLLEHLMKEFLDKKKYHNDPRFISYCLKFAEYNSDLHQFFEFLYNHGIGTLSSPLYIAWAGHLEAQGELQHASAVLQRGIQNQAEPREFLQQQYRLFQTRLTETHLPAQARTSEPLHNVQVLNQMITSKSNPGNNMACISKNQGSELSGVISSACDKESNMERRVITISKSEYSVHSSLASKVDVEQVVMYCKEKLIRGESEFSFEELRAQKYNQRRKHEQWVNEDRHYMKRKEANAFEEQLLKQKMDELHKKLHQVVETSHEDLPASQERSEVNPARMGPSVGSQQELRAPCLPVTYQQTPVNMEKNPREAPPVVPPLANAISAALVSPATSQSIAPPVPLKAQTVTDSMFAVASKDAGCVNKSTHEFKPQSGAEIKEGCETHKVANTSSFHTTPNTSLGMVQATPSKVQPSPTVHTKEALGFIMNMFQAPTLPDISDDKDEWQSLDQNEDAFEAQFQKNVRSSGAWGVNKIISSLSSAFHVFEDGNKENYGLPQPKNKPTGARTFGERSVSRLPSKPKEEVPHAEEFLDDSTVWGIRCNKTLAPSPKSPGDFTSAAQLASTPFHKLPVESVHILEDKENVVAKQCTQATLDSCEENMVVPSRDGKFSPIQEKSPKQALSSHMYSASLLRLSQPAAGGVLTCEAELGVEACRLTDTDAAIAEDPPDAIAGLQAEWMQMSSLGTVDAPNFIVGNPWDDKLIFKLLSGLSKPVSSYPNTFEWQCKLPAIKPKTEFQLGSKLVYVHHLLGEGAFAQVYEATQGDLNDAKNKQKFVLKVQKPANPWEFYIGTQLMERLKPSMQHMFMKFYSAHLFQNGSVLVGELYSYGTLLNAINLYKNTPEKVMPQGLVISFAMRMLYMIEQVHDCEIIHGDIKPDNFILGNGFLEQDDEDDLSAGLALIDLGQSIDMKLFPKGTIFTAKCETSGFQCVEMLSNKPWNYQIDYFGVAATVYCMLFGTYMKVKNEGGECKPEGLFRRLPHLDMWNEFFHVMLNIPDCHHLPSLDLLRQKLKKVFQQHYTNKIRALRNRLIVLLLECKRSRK

MAPK3 = MAPK3 (Homo sapiens, UniProt P27361)
MARK2 = MARK2 (Homo sapiens, UniProt Q7KZI7)
CSK = CSK (Homo sapiens, UniProt P41240)
CSK, sequence (P41240 whole entry): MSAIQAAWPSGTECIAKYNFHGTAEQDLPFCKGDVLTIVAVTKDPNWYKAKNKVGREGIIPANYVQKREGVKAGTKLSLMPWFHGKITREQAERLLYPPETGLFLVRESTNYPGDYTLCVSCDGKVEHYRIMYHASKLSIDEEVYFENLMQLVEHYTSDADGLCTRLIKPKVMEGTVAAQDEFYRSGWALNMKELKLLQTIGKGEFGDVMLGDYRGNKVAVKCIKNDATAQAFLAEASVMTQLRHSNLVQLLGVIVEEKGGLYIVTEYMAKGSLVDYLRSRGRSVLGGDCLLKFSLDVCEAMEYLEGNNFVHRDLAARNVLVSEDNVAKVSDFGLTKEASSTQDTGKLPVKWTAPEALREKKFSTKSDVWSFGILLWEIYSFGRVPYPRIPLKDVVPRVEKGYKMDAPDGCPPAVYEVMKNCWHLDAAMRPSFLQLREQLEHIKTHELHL

ACVR1B = ACVR1B (Homo sapiens, UniProt P36896)
ACVR1B, sequence (P36896 whole entry): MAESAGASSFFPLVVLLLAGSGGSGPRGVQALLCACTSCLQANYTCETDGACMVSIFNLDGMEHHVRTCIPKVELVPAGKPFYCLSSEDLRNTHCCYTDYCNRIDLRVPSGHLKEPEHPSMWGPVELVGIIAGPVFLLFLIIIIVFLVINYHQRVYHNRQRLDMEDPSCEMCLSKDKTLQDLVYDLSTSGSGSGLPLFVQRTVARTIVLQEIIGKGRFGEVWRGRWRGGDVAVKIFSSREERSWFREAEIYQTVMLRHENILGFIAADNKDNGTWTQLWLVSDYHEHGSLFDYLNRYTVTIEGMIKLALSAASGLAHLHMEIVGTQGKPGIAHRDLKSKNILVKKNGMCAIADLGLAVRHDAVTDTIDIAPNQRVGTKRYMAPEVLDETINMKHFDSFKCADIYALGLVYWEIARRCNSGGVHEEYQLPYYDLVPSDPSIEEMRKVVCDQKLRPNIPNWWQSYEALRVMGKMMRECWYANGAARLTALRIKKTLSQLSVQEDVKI

PRKAR2B = PRKAR2B (Homo sapiens, UniProt P31323)
PRKAR2B, sequence (P31323 whole entry): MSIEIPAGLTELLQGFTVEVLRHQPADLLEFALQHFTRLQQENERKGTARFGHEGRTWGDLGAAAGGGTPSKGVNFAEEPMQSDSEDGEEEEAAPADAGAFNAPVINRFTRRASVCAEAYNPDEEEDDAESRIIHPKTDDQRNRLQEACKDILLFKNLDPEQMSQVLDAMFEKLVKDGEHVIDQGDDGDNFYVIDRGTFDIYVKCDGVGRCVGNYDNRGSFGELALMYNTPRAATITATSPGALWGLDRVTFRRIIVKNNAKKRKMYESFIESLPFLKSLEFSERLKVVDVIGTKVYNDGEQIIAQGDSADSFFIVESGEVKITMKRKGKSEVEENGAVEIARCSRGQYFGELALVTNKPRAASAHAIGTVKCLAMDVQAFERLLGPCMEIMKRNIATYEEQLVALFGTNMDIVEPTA

MINK1 = MINK1 (Homo sapiens, UniProt Q8N4C8)
BRAF = BRAF (Homo sapiens, UniProt P15056)
BRAF, sequence (P15056 whole entry): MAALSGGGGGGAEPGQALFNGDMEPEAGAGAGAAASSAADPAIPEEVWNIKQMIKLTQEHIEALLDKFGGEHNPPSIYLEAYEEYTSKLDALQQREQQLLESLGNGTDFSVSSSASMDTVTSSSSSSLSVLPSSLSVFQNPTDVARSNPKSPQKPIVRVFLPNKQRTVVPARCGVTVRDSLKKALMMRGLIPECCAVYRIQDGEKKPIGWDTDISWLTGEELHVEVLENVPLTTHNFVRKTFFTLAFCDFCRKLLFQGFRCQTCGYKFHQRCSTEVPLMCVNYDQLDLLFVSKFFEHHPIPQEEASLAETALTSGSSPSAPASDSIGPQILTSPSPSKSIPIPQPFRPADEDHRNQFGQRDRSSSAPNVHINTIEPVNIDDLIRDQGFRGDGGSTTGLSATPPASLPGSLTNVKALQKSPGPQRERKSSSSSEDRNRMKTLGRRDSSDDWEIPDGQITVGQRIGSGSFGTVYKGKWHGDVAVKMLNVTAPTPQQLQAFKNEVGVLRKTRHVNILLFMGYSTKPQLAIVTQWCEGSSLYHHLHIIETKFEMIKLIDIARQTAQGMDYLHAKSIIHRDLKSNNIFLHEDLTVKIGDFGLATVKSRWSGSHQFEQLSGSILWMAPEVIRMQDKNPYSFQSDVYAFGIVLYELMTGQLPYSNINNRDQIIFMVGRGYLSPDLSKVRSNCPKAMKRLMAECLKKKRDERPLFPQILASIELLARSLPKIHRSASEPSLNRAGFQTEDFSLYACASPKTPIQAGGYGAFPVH

MAP2K3 = MAP2K3 (Homo sapiens, UniProt P46734)
PTK2B = PTK2B (Homo sapiens, UniProt Q14289)
NLK = NLK (Homo sapiens, UniProt Q9UBE8)
PHKG2 = PHKG2 (Homo sapiens, UniProt P15735)
PRKAG1 = PRKAG1 (Homo sapiens, UniProt P54619)
PRKAG1, sequence (P54619 whole entry): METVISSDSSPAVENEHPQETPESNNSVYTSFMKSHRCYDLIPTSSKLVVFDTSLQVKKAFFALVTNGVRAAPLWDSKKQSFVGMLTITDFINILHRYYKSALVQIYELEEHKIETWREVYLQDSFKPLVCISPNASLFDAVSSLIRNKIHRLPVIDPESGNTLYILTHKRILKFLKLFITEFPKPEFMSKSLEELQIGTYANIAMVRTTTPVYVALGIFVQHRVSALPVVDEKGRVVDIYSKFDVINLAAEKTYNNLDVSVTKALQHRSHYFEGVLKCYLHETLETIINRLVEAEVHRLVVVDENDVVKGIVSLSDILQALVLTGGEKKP

IKBKB = IKBKB (Homo sapiens, UniProt O14920)
IKBKB, sequence (O14920 whole entry): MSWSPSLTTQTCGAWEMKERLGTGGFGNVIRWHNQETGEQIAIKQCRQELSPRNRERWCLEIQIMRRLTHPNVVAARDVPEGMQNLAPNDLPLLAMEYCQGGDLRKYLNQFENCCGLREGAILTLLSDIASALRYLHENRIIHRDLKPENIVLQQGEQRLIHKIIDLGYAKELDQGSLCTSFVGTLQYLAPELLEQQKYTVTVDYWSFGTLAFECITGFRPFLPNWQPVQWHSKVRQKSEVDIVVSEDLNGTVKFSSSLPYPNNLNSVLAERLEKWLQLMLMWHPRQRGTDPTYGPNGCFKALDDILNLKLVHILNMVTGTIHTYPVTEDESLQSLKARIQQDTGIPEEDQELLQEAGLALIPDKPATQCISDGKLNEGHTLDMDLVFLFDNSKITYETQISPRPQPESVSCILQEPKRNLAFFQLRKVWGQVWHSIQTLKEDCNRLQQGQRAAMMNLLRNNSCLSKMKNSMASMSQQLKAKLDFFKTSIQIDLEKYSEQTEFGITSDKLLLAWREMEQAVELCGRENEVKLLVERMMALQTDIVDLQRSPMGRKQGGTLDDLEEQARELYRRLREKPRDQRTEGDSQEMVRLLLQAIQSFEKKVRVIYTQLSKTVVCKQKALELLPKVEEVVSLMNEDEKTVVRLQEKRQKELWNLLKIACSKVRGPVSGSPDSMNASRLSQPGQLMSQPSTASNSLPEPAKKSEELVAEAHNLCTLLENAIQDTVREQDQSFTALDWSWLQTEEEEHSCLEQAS

LIMK1 = LIMK1 (Homo sapiens, UniProt P53667)
YWHAZ = YWHAZ (Homo sapiens, UniProt P63104)

SMILES: COc1ccccc1-c1n[nH]c2nc(N[C@H]3CC[C@H](NS(=O)(=O)CCC(F)(F)F)CC3)nc(OC)c12 [compound 31, 3,3,3-Trifluoro-N-(trans-4-((4-methoxy-3-(2-methoxyphenyl)-1H-pyrazolo[3,4-d]pyrimidin-6-yl)amino)cyclohexyl)propane-1-sulfonamide]
- IC50 (FN3KRP): ≥ 20 µM
- IC50 (LATS1): ≥ 20 µM
- IC50 (MYLK): ≥ 20 µM
- IC50 (MAPKAPK5): 3 µM
- IC50 (TEC): ≥ 20 µM
- IC50 (BUB1): ≥ 20 µM
- IC50 (MAPK3): ≥ 20 µM
- IC50 (MARK2): ≥ 20 µM
- IC50 (CSK): ≥ 20 µM
- IC50 (ACVR1B): ≥ 20 µM
- IC50 (PRKAR2B): ≥ 20 µM
- IC50 (MINK1): ≥ 20 µM
- IC50 (BRAF): ≥ 20 µM
- IC50 (MAP2K3): ≥ 20 µM
- IC50 (PTK2B): ≥ 20 µM
- IC50 (NLK): 3.4 µM
- IC50 (PHKG2): ≥ 20 µM
- IC50 (PRKAG1): ≥ 20 µM
- IC50 (IKBKB): ≥ 20 µM
- IC50 (LIMK1): ≥ 20 µM
- IC50 (YWHAZ): ≥ 20 µM
